Measurements reported in patent US20210275518A1, “METHODS OF USING REBASTINIB IN THE TREATMENT OF DISORDERS” (Deciphera Pharmaceuticals, LLC, priority 2020, published 2021).

Tests used:
mesothelioma = assay: Phase 1b/2 rebastinib + paclitaxel, Part 1 patient with mesothelioma; assay type: in vivo, human; settings: one patient; 50 mg BID rebastinib + paclitaxel 80 mg/m^2, reduced at Cycle 4 to 25 mg BID + 60 mg/m^2; two prior lines carboplatin and alimta; Cycle 8, Day 1
Description: The study consists of two parts (Part 1 and Part 2). In Part 1, patients were assigned to one of two pre-defined dose levels of rebastinib (50 or 100 mg BID) in combination with paclitaxel administered by intravenous (IV) infusion at 80 mg/m^2. Paclitaxel is to be administered by IV infusion at 80 mg/m^2 over approximately 60 minutes on Day 1, Day 8 and Day 15 of repeated 28-day cycles. Rebastinib is to be administered orally prior to the paclitaxel infusion.
Part 1 included treatment of a patient with mesothelioma with 50 mg BID rebastinib and paclitaxel at 80 mg/m^2. The patient had two prior lines of treatment with carboplatin and alimta.

[1] = test system: Low Passage Champions TUMORGRAFT Models of Human Mesothelioma; assay: Preclinical rebastinib/carboplatin combination efficacy in mesothelioma PDx models; assay type: in vivo, immunocompromised mice; settings: Model 2; 25 mg/kg rebastinib intraperitoneal + 20 mg/kg carboplatin intravenous
Description: This study was conducted to obtain preclinical evidence of rebastinib/carboplatin combination efficacy in mesothelioma to support clinical development. The study was an in vivo evaluation of rebastinib single agent and in combination with carboplatin (SOC), in Low Passage Champions TUMORGRAFT® Models of Human Mesothelioma in immunocompromised mice.
Mesothelioma PDx models were studied each with 8 animals per group for total of 4 groups per model. The study endpoint was when the mean tumor volume of the control reaches 1500 mm^3 or 60 days max. Terminal tumors were be collected, fixed, and embedded.

[2] = test system: triple negative breast cancer; assay: Phase 1b/2 rebastinib + paclitaxel, Part 2 Cohort 1 (RECIST v1.1); assay type: in vivo, human
Text: (§1) Upon determination of the RP2D, Part 2 is initiated to dose up to 165 evaluable patients using the RP2D across five indication-specific cohorts. A Simon's two-stage design is applied to Part 2 to further evaluate the safety, tolerability, and preliminary efficacy of rebastinib in combination with paclitaxel in triple-negative breast (Cohort 1), inflammatory breast (Cohort 2), ovarian (Cohort 3), endometrial adenocarcinoma (Cohort 4), and gynecologic carcinosarcoma (Cohort 5) cancers. Each cohort initially enrolls up to 18 evaluable patients in the first stage. Patients must receive at least 1 dose of the combination and have 1 post-baseline assessment (including assessment of clinical progression) or be discontinued prior to the postbaseline disease assessment due to an AE at least possibly related to rebastinib, to be considered evaluable. Tumor response is assessed according to Response Evaluation Criteria in Solid Tumors (RECIST) Version 1.1. The decision to enroll patients beyond the first stage is based on response assessments obtained after the first post-dose response assessment of the last patient enrolled in the first stage of a cohort. […] If ≤4 responses are seen in a cohort, the cohort will be terminated. If >4 responses are seen prior to the last evaluable patient in the first stage, expanding the cohort may be triggered earlier. Enrollment in each cohort will pause between the first and second stage of the Simon two-stage for evaluation of response. Patients will receive study treatment until they develop progressive disease, experience unacceptable toxicity, or withdraw consent.

[3] = test system: breast cancer, ovarian cancer, and mesothelioma; assay: Phase 1b/2 study of rebastinib in combination with carboplatin; assay type: in vivo, human
Description: This is a Phase 1b/2 study where patients with mesothelioma are administered rebastinib in combination with carboplatin. The study follows a Simon 2-stage design at the MTD and R2PD. Safety and tolerability, PK and PD, and preliminary efficacy data was used to determine the RP2D. Upon determination of the RP2D or MTD, the Simon 2-stage design is initiated to dose evaluable patients using the RP2D or MTD across three indication-specific cohorts (breast cancer, ovarian cancer, and mesothelioma).
as §1, with “Each” for “Upon determination of the RP2D, Part 2 is initiated to dose up to 165 evaluable patients using the RP2D across five indication-specific cohorts. A Simon's two-stage design is applied to Part 2 to further evaluate the safety, tolerability, and preliminary efficacy of rebastinib in combination with paclitaxel in triple-negative breast (Cohort 1), inflammatory breast (Cohort 2), ovarian (Cohort 3), endometrial adenocarcinoma (Cohort 4), and gynecologic carcinosarcoma (Cohort 5) cancers. Each”, “progression),” for “progression)”
At a second time point, 22 patients were enrolled in the study (3 cohorts: 3 patients at rebastinib 50 mg BID+carboplatin AUC5, 14 patients at rebastinib 100 mg BID+carboplatin AUC5, and 5 pts at rebastinib 100 mg BID+carboplatin AUC6). The median age was 61 yrs. Most frequent diagnoses were breast cancer (n=5); neuroendocrine carcinoma (n=3); pancreatic adenocarcinoma, NSCLC, and cholangiocarcinoma (n=2 each). The median number of prior anti-cancer therapies was 4 (1, 12). Median duration of treatment was 8.4 weeks (0.9, 22.6).

[4] = both Cycle 3, Day 1 and Cycle 5, Day 1
[5] = time point 1, rebastinib and carboplatin combination

Structure (SMILES): CNC(=O)c1cc(Oc2ccc(NC(=O)Nc3cc(C(C)(C)C)nn3-c3ccc4ncccc4c3)c(F)c2)ccn1 [rebastinib]
- Tumor response (mesothelioma): partial response
- Tumor inhibition [1]: 38%
- Patients with stable disease ([2]; Cycle 3, Day 1): one
- Patients with partial response ([2]; Cycle 8, Day 1): one
- Patients with partial response [2, 4]: one
- Patients with stable disease [2, 4]: two
- Tolerability ([3]; time point 1, rebastinib 50 mg and 100 mg BID in combination with carboplatin AUC5): tolerated
- Tolerability ([3]; time point 1, rebastinib 100 mg BID in combination with carboplatin AUC6 (3 patients)): tolerated
- Muscular weakness [3, 5]: No muscular weakness
- Response in the dose escalation cohorts [3, 5]: No response
- Partial response (PR) ([3]; time point 2, 22 patients enrolled, rebastinib 50 or 100 mg BID + carboplatin AUC5 or AUC6, preliminary): 1
- Muscular weakness in the dose expansion cohort ([3]; time point 2, rebastinib 100 mg BID with carboplatin AUC5, RP2D adjusted to 50 mg BID): increased frequency
- CBR at 6 weeks ([3]; time point 2, rebastinib + carboplatin, preliminary): 52%
